Laboratory results as given in article PMC4503722, “Novel Phenotypic Outcomes Identified for a Public Collection of Approved Drugs from a Publicly Accessible Panel of Assays” (PLoS ONE, 2015).

Tests used:
[1] = test system: endothelial tube formation in co-cultures of ECFCs and ADSCs treated with VEGF; test: cells; assay type: cell-based, human
HCT116 = test: cells; assay type: cell-based; conditions: basal; for Basal_Viability ATP HCT116 IC50/EC50: assay number 25
hp70S6K1 (RPS6KB1) = biological target: T1, hp70S6K1 (RPS6KB1) (Homo sapiens, UniProt P23443); test: Cerep LANCE kinase assay hp70S6K1 (S1 assay 31); assay type: biochemical; conditions: for hp70S6K1 LANCE IC50/EC50: assay number 31
T1 construct: purchased Cerep (LANCE kinase assay platform, contract assay)
T1 sequence (P23443 whole entry): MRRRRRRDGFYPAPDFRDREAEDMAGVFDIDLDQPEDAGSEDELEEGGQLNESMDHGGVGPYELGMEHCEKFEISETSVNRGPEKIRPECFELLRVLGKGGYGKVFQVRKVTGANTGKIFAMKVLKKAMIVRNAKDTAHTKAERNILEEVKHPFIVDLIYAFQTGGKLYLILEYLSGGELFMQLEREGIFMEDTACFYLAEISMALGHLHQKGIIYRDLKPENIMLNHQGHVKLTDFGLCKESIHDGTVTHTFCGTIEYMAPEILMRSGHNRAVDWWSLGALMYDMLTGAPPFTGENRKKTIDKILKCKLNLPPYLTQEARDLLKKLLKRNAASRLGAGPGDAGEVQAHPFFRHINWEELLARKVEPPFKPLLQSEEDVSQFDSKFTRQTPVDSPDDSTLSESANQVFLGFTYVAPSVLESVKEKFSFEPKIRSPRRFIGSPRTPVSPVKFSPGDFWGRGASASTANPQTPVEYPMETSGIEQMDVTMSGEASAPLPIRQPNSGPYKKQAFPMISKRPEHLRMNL

hFLT3 = biological target: T2, hFLT3 (Homo sapiens, UniProt P36888); test: Cerep LANCE kinase assay hFLT3 (S1 assay 35); assay type: biochemical; conditions: for hFLT3 LANCE IC50/EC50: assay number 35
T2 construct: purchased Cerep (LANCE kinase assay platform, contract assay)
T2 sequence (P36888 27-993): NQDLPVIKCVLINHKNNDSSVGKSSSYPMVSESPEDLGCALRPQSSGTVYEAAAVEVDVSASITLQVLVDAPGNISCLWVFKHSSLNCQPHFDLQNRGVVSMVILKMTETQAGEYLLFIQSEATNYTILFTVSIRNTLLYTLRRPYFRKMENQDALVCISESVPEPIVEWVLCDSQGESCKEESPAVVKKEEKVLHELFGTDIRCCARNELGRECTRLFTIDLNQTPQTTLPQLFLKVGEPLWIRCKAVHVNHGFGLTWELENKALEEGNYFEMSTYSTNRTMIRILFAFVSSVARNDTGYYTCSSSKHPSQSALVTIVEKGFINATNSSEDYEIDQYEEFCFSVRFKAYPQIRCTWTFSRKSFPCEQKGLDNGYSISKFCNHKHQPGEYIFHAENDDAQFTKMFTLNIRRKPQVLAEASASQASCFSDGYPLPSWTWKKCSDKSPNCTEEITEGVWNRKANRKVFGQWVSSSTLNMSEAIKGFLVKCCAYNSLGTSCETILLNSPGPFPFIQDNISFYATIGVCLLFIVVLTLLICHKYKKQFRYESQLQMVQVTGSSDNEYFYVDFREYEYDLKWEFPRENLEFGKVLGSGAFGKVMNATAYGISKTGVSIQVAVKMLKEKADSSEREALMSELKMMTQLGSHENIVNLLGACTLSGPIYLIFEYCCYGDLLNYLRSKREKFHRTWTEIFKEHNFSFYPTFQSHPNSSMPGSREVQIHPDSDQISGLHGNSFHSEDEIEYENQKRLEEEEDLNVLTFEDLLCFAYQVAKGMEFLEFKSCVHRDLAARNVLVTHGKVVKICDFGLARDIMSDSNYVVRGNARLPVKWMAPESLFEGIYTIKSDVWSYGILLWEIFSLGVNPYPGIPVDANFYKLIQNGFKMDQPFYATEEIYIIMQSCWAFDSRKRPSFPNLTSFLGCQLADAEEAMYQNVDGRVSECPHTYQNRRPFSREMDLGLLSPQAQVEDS

hKDR = biological target: T3, hKDR (Homo sapiens, UniProt P35968); test: Cerep LANCE kinase assay hKDR (S1 assay 32); assay type: biochemical; conditions: for hKDR LANCE IC50/EC50: assay number 32
T3 construct: purchased Cerep (LANCE kinase assay platform, contract assay)
T3 sequence (P35968 20-1356): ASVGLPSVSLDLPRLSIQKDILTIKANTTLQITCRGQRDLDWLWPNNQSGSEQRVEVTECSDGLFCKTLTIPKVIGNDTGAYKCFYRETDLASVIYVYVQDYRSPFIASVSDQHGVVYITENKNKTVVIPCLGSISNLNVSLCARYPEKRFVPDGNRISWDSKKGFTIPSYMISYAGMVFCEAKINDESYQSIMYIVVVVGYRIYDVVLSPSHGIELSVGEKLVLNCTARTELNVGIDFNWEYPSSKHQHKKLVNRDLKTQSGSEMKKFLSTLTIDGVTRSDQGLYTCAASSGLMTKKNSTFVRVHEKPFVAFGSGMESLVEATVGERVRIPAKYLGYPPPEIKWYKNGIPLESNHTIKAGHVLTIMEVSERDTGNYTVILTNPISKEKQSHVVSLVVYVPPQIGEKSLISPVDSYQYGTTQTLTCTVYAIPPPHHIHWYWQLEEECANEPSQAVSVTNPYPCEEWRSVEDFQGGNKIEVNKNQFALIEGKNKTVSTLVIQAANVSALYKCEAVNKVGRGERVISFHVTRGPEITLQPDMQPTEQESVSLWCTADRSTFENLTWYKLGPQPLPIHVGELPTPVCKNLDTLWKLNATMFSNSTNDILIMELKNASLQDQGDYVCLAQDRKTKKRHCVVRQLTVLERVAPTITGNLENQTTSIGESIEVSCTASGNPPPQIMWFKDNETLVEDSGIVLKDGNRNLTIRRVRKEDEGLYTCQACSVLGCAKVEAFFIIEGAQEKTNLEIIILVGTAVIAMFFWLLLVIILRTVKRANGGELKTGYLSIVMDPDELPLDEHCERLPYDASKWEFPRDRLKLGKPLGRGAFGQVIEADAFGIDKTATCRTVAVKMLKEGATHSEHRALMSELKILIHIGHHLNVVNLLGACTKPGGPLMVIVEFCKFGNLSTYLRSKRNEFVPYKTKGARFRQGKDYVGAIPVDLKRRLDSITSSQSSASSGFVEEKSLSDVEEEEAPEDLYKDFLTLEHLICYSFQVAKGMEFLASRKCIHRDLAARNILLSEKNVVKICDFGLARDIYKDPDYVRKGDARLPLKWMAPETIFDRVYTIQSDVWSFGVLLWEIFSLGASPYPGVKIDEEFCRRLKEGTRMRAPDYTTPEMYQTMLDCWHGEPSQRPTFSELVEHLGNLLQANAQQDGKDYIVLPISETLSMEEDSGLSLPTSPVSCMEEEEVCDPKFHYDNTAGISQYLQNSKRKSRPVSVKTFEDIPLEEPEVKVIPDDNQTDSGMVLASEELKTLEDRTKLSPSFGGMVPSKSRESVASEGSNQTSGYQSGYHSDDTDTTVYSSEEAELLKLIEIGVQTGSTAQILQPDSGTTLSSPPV

DLD-1 = test: cells; assay type: cell-based; conditions: for IC50/EC50, Basal_Viability ATP DLD-1 (assay number 23): basal; for Basal_Viability ATP DLD-1 IC50/EC50: assay number 23
Colo320 = test: cells; assay type: cell-based; conditions: for IC50/EC50, Basal_Viability ATP Colo 320 (assay number 27): basal; for Basal_Viability ATP Colo 320 IC50/EC50: assay number 27
hJAK2 = biological target: T4, hJAK2 (Homo sapiens, UniProt O60674); test: Cerep LANCE kinase assay hJAK2 (S1 assay 33); assay type: biochemical; conditions: for hJAK2 LANCE IC50/EC50: assay number 33
T4 construct: purchased Cerep (LANCE kinase assay platform, contract assay)
T4 sequence (O60674 whole entry): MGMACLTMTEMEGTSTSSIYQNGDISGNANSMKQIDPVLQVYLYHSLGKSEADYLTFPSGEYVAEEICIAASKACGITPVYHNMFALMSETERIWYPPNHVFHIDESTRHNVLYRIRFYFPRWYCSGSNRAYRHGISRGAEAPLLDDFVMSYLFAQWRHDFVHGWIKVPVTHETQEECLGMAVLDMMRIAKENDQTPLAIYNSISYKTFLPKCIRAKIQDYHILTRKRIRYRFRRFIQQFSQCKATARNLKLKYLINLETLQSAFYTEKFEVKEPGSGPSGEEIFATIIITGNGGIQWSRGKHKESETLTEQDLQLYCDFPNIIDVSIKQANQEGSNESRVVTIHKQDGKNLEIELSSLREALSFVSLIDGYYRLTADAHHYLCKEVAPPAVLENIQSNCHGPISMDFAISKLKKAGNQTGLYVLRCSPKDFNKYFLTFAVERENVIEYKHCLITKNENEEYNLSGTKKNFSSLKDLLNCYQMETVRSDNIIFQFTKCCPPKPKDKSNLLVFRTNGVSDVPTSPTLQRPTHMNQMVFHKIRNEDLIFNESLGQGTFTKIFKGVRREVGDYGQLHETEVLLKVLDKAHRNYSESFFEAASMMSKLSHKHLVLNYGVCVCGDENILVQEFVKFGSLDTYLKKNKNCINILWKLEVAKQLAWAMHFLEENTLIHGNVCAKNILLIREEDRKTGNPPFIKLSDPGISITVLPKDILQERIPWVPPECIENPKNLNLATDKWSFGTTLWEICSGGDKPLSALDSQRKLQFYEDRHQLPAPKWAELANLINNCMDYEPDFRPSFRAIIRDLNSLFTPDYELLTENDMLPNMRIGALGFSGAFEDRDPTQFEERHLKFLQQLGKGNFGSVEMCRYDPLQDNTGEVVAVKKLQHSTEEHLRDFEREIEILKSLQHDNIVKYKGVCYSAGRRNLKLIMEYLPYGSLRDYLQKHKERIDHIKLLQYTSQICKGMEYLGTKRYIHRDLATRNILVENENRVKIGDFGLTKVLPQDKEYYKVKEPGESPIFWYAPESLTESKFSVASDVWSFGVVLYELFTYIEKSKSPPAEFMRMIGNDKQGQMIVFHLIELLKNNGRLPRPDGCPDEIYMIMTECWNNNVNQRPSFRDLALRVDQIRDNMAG

hGSK3b = biological target: T5, hGSK3b (Homo sapiens, UniProt P49841); test: Cerep LANCE kinase assay hGSK3b (S1 assay 34); assay type: biochemical; conditions: for hGSK3b LANCE IC50/EC50: assay number 34
T5 construct: purchased Cerep (LANCE kinase assay platform, contract assay)
T5 sequence (P49841 whole entry): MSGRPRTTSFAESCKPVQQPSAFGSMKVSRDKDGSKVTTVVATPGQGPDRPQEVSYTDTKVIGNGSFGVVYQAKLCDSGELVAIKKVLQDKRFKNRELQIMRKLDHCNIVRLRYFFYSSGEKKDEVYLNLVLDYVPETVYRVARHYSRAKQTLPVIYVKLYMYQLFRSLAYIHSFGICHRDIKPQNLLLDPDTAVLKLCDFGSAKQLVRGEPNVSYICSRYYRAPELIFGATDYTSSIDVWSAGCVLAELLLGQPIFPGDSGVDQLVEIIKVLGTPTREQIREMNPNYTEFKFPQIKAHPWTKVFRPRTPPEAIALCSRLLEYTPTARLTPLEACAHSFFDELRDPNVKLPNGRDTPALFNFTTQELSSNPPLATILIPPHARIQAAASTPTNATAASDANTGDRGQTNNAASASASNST

HeLa cells = test: cells; assay type: cell-based; conditions: for Hela CellCycMod PI 2N IC50/EC50: assay number 14; for Hela CellCycMod PI 4N IC50/EC50: assay number 16; for Hela CellCycMod PI MI IC50/EC50: assay number 17; for Hela CellCycMod PI Cell Number IC50/EC50: assay number 18
[2] = test system: ECFC/ADSC co-culture cell nuclei number
SW480 = test: cells; assay type: cell-based; conditions: for IC50/EC50, Basal_Viability ATP SW480 (assay number 24): basal; for Basal_Viability ATP SW480 IC50/EC50: assay number 24
[3] = test system: HCT116 cells treated with a GSK3β inhibitor; test: cells; assay type: cell-based; conditions: for IC50/EC50, GSK3b inh pretreated_Viability ATP HCT116 (assay number 26): GSK3b inh pretreated
SNU-C1 = test: cells; assay type: cell-based; conditions: for IC50/EC50, Basal_Viability ATP SNU-C1 (assay number 30): basal
HT-29 = test: cells; assay type: cell-based; conditions: for IC50/EC50, Basal_Viability ATP HT-29 (assay number 28): basal; for Basal_Viability ATP HT-29 IC50/EC50: assay number 28
RKO = test: cells; assay type: cell-based; conditions: for IC50/EC50, Basal_Viability ATP RKO (assay number 29): basal; for Basal_Viability ATP RKO IC50/EC50: assay number 29

Row | SMILES | IC50/EC50, Basal_Viability ATP HCT116 (assay number 25) (HCT116) | IC50/EC50, hp70S6K1 LANCE (assay number 31) (hp70S6K1 (RPS6KB1)) | IC50/EC50, hFLT3 LANCE (assay number 35) (hFLT3) | IC50/EC50, hKDR LANCE (assay number 32) (hKDR) | IC50/EC50, Basal_Viability ATP DLD-1 (assay number 23) (DLD-1) | IC50/EC50, Basal_Viability ATP Colo 320 (assay number 27) (Colo320) | IC50/EC50, hJAK2 LANCE (assay number 33) (hJAK2) | IC50/EC50, hGSK3b LANCE (assay number 34) (hGSK3b) | IC50/EC50, Hela CellCycMod PI 2N (assay number 14) (HeLa cells) | IC50/EC50, Hela CellCycMod PI 4N (assay number 16) (HeLa cells) | IC50/EC50, Hela CellCycMod PI Cell Number (assay number 18) (HeLa cells) | IC50/EC50, Hela CellCycMod PI MI (assay number 17) (HeLa cells) | IC50/EC50, Hela CellCycMod PI S Phase (assay number 15) (HeLa cells) | IC50/EC50, Basal_Viability ATP SW480 (assay number 24) (SW480) | IC50/EC50, GSK3b inh pretreated_Viability ATP HCT116 (assay number 26) [3] | IC50/EC50, Basal_Viability ATP SNU-C1 (assay number 30) (SNU-C1) | IC50/EC50, Basal_Viability ATP HT-29 (assay number 28) (HT-29) | IC50/EC50, Basal_Viability ATP RKO (assay number 29) (RKO) | VEGF_ADSC\ECFC Angio CD31 TubeArea IC50/EC50 [1] | Basal_Viability ATP HCT116 IC50/EC50 (HCT116) | also measured
1 | O=c1[nH]c(=O)n([C@H]2C[C@H](O)[C@@H](CO)O2)cc1F [NCGC00023722-08] | 0.001 µM | > 20 µM | > 20 µM | > 20 µM | 0.001 µM | > 20 µM | > 20 µM | > 20 µM | > 10 µM | > 10 µM | > 10 µM | > 10 µM | 0.1688 µM | > 20 µM | 0.001 µM | > 20 µM | > 20 µM | 0.001 µM |  |  | IC50/EC50, VEGF_ADSC\ECFC Angio CD31 TubeArea (assay number 2) [1]: 0.0216 µM; IC50/EC50, VEGF_ADSC\ECFC Angio Hoechst NucArea (assay number 3) [2]: > 10 µM
2 | O=C(O)c1ccc(-n2nc(-c3ccccc3O)nc2-c2ccccc2O)cc1 [NCGC00263572-01] |  |  |  |  |  |  |  |  |  |  |  |  |  |  |  |  |  |  | 2.0862 µM | 0.4376 µM | hp70S6K1 LANCE IC50/EC50 (hp70S6K1 (RPS6KB1)): > 20 µM; hFLT3 LANCE IC50/EC50 (hFLT3): > 20 µM; hKDR LANCE IC50/EC50 (hKDR): > 20 µM; Basal_Viability ATP DLD-1 IC50/EC50 (DLD-1): 0.6507 µM; Basal_Viability ATP Colo 320 IC50/EC50 (Colo320): 0.4085 µM; hJAK2 LANCE IC50/EC50 (hJAK2): 18.21 µM; hGSK3b LANCE IC50/EC50 (hGSK3b): > 20 µM; Hela CellCycMod PI 2N IC50/EC50 (HeLa cells): > 10 µM; Hela CellCycMod PI 4N IC50/EC50 (HeLa cells): > 10 µM; Hela CellCycMod PI MI IC50/EC50 (HeLa cells): > 10 µM; Hela CellCycMod PI Cell Number IC50/EC50 (HeLa cells): 5.678 µM; VEGF_ADSC\ECFC Angio Hoechst NucArea IC50/EC50 [2]: > 10 µM; Basal_Viability ATP SW480 IC50/EC50 (SW480): 0.0776 µM; GSK3b inh pretreated_Viability ATP HCT116 IC50/EC50 ([3]; assay number 26, GSK3b inhibitor pretreated): 0.2423 µM; Basal_Viability ATP SNU-C1 IC50/EC50 (SNU-C1; assay number 30): 0.2328 µM; Basal_Viability ATP HT-29 IC50/EC50 (HT-29): 0.5159 µM; Basal_Viability ATP RKO IC50/EC50 (RKO): 0.1001 µM
3 | CC(C)(C)C1CCC(CC2=C(O)c3ccccc3C(=O)C2=O)CC1 (stereo not drawn) [NCGC00253624-01] |  |  |  |  |  |  |  |  |  |  |  |  |  |  |  |  |  |  | 1.9625 µM | 0.2268 µM | hp70S6K1 LANCE IC50/EC50 (hp70S6K1 (RPS6KB1)): > 20 µM; hFLT3 LANCE IC50/EC50 (hFLT3): > 20 µM; hKDR LANCE IC50/EC50 (hKDR): > 20 µM; Basal_Viability ATP DLD-1 IC50/EC50 (DLD-1): 0.2185 µM; Basal_Viability ATP Colo 320 IC50/EC50 (Colo320): 0.2548 µM; hJAK2 LANCE IC50/EC50 (hJAK2): > 20 µM; hGSK3b LANCE IC50/EC50 (hGSK3b): > 20 µM; Hela CellCycMod PI 2N IC50/EC50 (HeLa cells): > 10 µM; Hela CellCycMod PI S Phase IC50/EC50 (HeLa cells; assay number 15, S phase): > 10 µM; Hela CellCycMod PI 4N IC50/EC50 (HeLa cells): > 10 µM; Hela CellCycMod PI MI IC50/EC50 (HeLa cells): > 10 µM; Hela CellCycMod PI Cell Number IC50/EC50 (HeLa cells): > 10 µM; VEGF_ADSC\ECFC Angio Hoechst NucArea IC50/EC50 [2]: > 10 µM; Basal_Viability ATP SW480 IC50/EC50 (SW480): 0.2047 µM; Basal_Viability ATP HT-29 IC50/EC50 (HT-29): 3.3906 µM; Basal_Viability ATP RKO IC50/EC50 (RKO): 0.1329 µM
4 | Cn1cnc([N+](=O)[O-])c1Sc1ncnc2nc[nH]c12 [NCGC00015060-18] | 0.2074 µM | > 20 µM | > 20 µM | > 20 µM | 0.3635 µM | 10.3402 µM | > 20 µM | > 20 µM | > 10 µM | > 10 µM | > 10 µM | > 10 µM | > 10 µM | 9.4353 µM | 0.6232 µM | > 20 µM | > 20 µM | 2.661 µM |  |  | 
